Here are results for 21 molecules from patent EP0938474B1, “CYCLOPROPYLINDOLE COMPOUNDS AND THEIR USE AS PRODRUGS” (AUCKLAND UNISERVICES LIMITED, priority 1996, dated 1998).

The test system of test [1] is SC3.2. As to the kind of experiment: Cytotoxicity in cells transfected with bacterial nitroreductase (NR+). In kind it is cell-based. The following applies: Homo sapiens, SK-OV-3; SC3.2 (NR+ transfected counterpart of SKOV3); IC50, unit inferred; read-out: Human ovarian lines NR+. From the text:
(§1) Compounds of the invention were further tested against human cell lines (NR+ in Table 3) transfected with a gene encoding a bacterial nitroreductase (NR) enzyme to test for activation of compounds of the invention with NR. Untransfected control cells (NR- in Table 3) were used as controls. The cells used were the human colon NR-(wild-type) line WIDR and its transfected NR+ counterpart WC14.10; and the human ovarian NR- (wild-type) line SKOV3 together with its NR+ (transfected) counterpart SC3.2. The results are shown in Table 3, which also indicates the ratios of IC50s. These are intra-experiment values, and may differ slightly from those calculated from the given NR- and NR+ values.

For test [2], the system named is WC14.10. The description is as above. The following applies: Homo sapiens; WC14.10 (NR+ transfected counterpart of WIDR); IC50, unit inferred; read-out: Human colon lines NR+. In kind it is cell-based.
From the text: as §1

Test [3] has as its system human colon NR-(wild-type) line WIDR. As to the kind of experiment: Cytotoxicity in untransfected control cells (NR-), nitroreductase activation test. In kind it is cell-based. To be noted: IC50, unit inferred, read-out: Human colon lines NR-.
From the text: as §1

Test [4] relates to human ovarian NR- (wild-type) line SKOV3. Described as above. In kind it is cell-based. To be noted: SK-OV-3, IC50, unit inferred, read-out: Human ovarian lines NR-.
From the text: as §1

In test [5] the test system is UV4. As to the kind of experiment: Cytotoxicity (growth inhibition), 4 h drug exposure, methylene blue staining. In kind it is cell-based, rodent. To be noted: Cricetulus griseus; UV4 mutant AA8 line defective in excision repair; 4 hours exposure, then three days incubation. On the procedure: (§2) Compounds of the invention were tested for cytotoxicity against four different cell lines, all of which are widely available in the art. AA8 is a wild type rodent cell line. UV4 is a mutant AA8 cell line defective in excision repair, and hypersensitive to many alkylating agents. EMT6 is a widely-used rodent line. SKOV is a human ovarian cell line.
(§3) Cell culture assays were performed in 96-well microtitre trays. Compounds of the invention were added in culture medium, using serial two-fold dilutions to provide duplicate cultures at five different concentrations for each of eight drugs (plus eight controls) per tray. Drugs were dissolved in water or DMSO immediately prior to addition to the cell culture. After 4 hours, drugs were removed by washing cultures three times with fresh medium, and the trays were incubated for a futher three days. Cell density was then determined by staining with methylene blue as described previously (Finlay, G. J., et al, Anal. Biochm. 1984, 139, 272-277) and the IC50 was calculated as the drug concentration providing 50% inhibition of growth relative to the controls.

In test [6] the test system is AA8. Described as above. In kind it is cell-based. To be noted: Cricetulus griseus, CHO-AA8; AA8 wild type rodent cell line; 4 hours exposure, then three days incubation. Here is the method:
as §2, §3

The subject of test [7] is SKOV3. The description is as above. In kind it is cell-based. The following applies: SK-OV-3; human ovarian cell line; 4 hours exposure, then three days incubation. Here is the method:
as §2, §3

The test system of test [8] is EMT6. The description is as above. In kind it is cell-based. The following applies: Mus musculus; EMT6 rodent line; 4 hours exposure, then three days incubation. Here is the method:
as §2, §3

A value given as a limit tells only on which side of the number the result lay.

Regarding `COc1cc2cc(C(=O)N3CC(CCl)c4c3cc([N+](=O)[O-])c3ccccc43)[nH]c2c(OC)c1OC` (racemic) [14a], the IC50 in test [1] is 140 nM; in test [2], 380 nM; in test [3], 1300 nM; in test [4], 1600 nM.

`COc1cc2cc(C(=O)N3C[C@H](CCl)c4c3cc([N+](=O)[O-])c3ccccc43)[nH]c2c(OC)c1OC` [14aR]: the IC50 in test [1] was 300 nM; in test [2] it was > 20000 nM; in test [3], > 20000 nM; in test [4], > 20000 nM.

As to `COc1cc2cc(C(=O)N3C[C@@H](CCl)c4c3cc([N+](=O)[O-])c3ccccc43)[nH]c2c(OC)c1OC` [14aS], the IC50 was 40 nM in test [1], 90 nM in test [2], 350 nM in test [3] and 400 nM in test [4].

On to `O=C(c1cc2cc([N+](=O)[O-])ccc2[nH]1)N1CC(CCl)c2c1cc([N+](=O)[O-])c1ccccc21` (centres unmarked) [14b, 1-(chloromethyl)-5-nitro-3-[(5-nitroindol-2-yl)carbonyl]-1,2-dihydro-3H-benz[e]indole], for which the IC50 in test [1] is 390 nM; in test [2], 210 nM; in test [3] it was 390 nM; in test [4], 400 nM.

As for `CC(=O)Nc1ccc2[nH]c(C(=O)N3CC(CCl)c4c3cc([N+](=O)[O-])c3ccccc43)cc2c1` (centres unmarked) [14c, 3-[[5-(acetylamino)indol-2-yl]carbonyl]-1-(chloromethyl)-5-nitro-1,2-dihydro-3H-benz[e]indole], the IC50 in test [1] came to 250 nM; in test [2], 360 nM; in test [3], 1600 nM; in test [4] it was 4300 nM.

As for `COc1ccc2[nH]c(C(=O)N3CC(CCl)c4c3cc([N+](=O)[O-])c3ccccc43)cc2c1` (centres unmarked) [14d, 1-(chloromethyl)-3-[(5-methoxyindol-2-yl)carbonyl]-5-nitro-1,2-dihydro-3H-benz[e]indole], the IC50 was determined as 150 nM in test [1], 290 nM in test [2], 740 nM in test [3] and 580 nM in test [4].

For `COc1cc2cc(C(=O)N3CC(CCl)c4c3cc(N)c3ccccc43)[nH]c2c(OC)c1OC` (centres unmarked) [15a, 5-amino-1-(chloromethyl)-3-[(5,6,7-trimethoxyindol-2-yl)carbonyl]-1,2-dihydro-3H-benz [e] indole], the IC50 stood at 0.28 nM in test [5], 0.45 nM in test [6], 1 nM in test [7] and 0.27 nM in test [8].

As for `COc1cc2cc(C(=O)N3C[C@H](CCl)c4c3cc(N)c3ccccc43)[nH]c2c(OC)c1OC` [15aR, (R)-5-amino-1-(chloromethyl)-3-[(5,6,7-trimethoxyindol-,2-yl)carbonyl]-1,2-dihydro-3H-benz[e]indole], the IC50 in test [5] was found to be 2.6 nM; in test [6], 13.6 nM; in test [7], 7.8 nM; in test [8], 7 nM.

As for `COc1cc2cc(C(=O)N3C[C@@H](CCl)c4c3cc(N)c3ccccc43)[nH]c2c(OC)c1OC` [15aS, (S)-5-amino-1-(chloromethyl)-3-[(5,6,7-trimethoxyindol-2-yl)carbonyl]-1,2-dihydro-3H-benz[e]indole], the IC50 in test [5] worked out at 0.1 nM; in test [6] it was 0.2 nM; in test [7] it was 0.5 nM; in test [8], 0.1 nM.

On to `Nc1ccc2[nH]c(C(=O)N3CC(CCl)c4c3cc(N)c3ccccc43)cc2c1` (centres unmarked) [15b, 5-amino-3-[(5-aminoindol-2-yl)carbonyl]-1-(chloromethyl)-1,2-dihydro-3H-benz [e] indole], for which the IC50 in test [5] was 1 nM; in test [6], 2.4 nM; in test [7], 3 nM; in test [8] it was 0.8 nM.

In the case of `CC(=O)Nc1ccc2[nH]c(C(=O)N3CC(CCl)c4c3cc(N)c3ccccc43)cc2c1` (centres unmarked) [15c, 3-[[5-(acetylamino)indol-2-yl]carbonyl]-5-amino-1-(chloromethyl)-1,2-dihydro-3H-benz[e]indole], the IC50 in test [5] is 7.6 nM; in test [6], 12.5 nM; in test [7], 18 nM; in test [8] it was 5.2 nM.

Take `COc1ccc2[nH]c(C(=O)N3CC(CCl)c4c3cc(N)c3ccccc43)cc2c1` (centres unmarked) [15d, 5-amino-1-(chloromethyl)-3-[(5-methoxyindol-2-yl)carbonyl]-1,2-dihydro-3H-benz[e] indole]: the IC50 is 0.8 nM in test [5], 1.2 nM in test [6], 1.8 nM in test [7] and 0.9 nM in test [8].

Regarding `CN(C)CCOc1ccc2[nH]c(C(=O)N3CC(CCl)c4c3cc(N)c3ccccc43)cc2c1` (centres unmarked) [15e, 5-amino-1-(chloromethyl)-3-[[5-[2-(dimethylamino)ethoxy]indol-2-yl]carbonyl]-1,2-dihydro-3H-benz [e] indole], the IC50 in test [5] was 1.4 nM; in test [6] it was 3.5 nM; in test [7] it was 6.4 nM; in test [8] it was 0.9 nM.

As for `CCCC(=O)Nc1cc(/C=C/C(=O)N2CC(CCl)c3c2cc(N)c2ccccc32)n(C)c1` (centres unmarked) [15i], the IC50 stood at 16 nM in test [5], 31 nM in test [6], 22 nM in test [7] and 5.9 nM in test [8].

Turning to `COc1cccc(/C=C/C(=O)N2CC(CCl)c3c2cc(N)c2ccccc32)c1` (centres unmarked) [15l, 5-amino-1-(chloromethyl)-3-[(E)-3-methoxycinnamoyl]-1,2-dihydro-3H-benz[e]indole], the IC50 in test [5] amounted to 0.4 nM; in test [6], 0.3 nM; in test [7], 0.6 nM; in test [8], 0.2 nM.

As to `COc1cc2cc(C(=O)N3CC(COS(C)(=O)=O)c4c3cc(N)c3ccccc43)[nH]c2c(OC)c1OC` (centres unmarked) [15o, 5-amino-1-[(methanesulfonyloxy)methyl]-3-[(5,6,7-trimethoxyindol-2-yl)carbonyl]-1,2-dihydro-3H-benz[e]indole], the values for the IC50 in test [6], in test [7] and in test [8] were 660 nM, 1330 nM and 233 nM, respectively.

Turning to `CNc1cc2c(c3ccccc13)C(CCl)CN2C(=O)c1cc2cc(OC)c(OC)c(OC)c2[nH]1` (centres unmarked) [15p, 1-(chloromethyl)-5-methylamino-3-[(5,6,7-trimethoxyindol-2-yl)carbonyl]-1,2-dihydro-3H-benz[e]indole], the IC50 in test [5] is 0.1 nM; in test [6], 0.1 nM; in test [7], 0.3 nM; in test [8], 0.1 nM.

As to `COc1cc2cc(C(=O)N3CC(CCl)c4c3cc(N(C)C)c3ccccc43)[nH]c2c(OC)c1OC` (centres unmarked) [15q, 1-(chloromethyl)-5-dimethylamino-3-[(5,6,7-trimethoxy-indol-2-yl)carbonyl]-1,2-dihydro-3H-benz [e] indole], the IC50 in test [5] was found to be 3.7 nM; in test [6], 5.6 nM; in test [7], 16 nM; in test [8], 3.8 nM.

In the case of `COC(=O)c1cc2c3c(cc(N)c2[nH]1)N(C(=O)c1cc2cc(OC)c(OC)c(OC)c2[nH]1)CC3CCl` (centres unmarked) [32a, methyl 5-amino-1-(chloromethyl)-3-[(5,6,7-trimethoxyindol-2-yl)carbonyl]-1,2-dihydro-3H-pyrrolo[3,2-e]indole-7-carboxylate], the IC50 in test [5] turned out to be 1.7 nM; in test [6], 17 nM; in test [7] it was 14 nM; in test [8] it was 5.6 nM.

`CNc1cc2c(c3cc(C(=O)OC)[nH]c13)C(CCl)CN2C(=O)c1cc2cc(OC)c(OC)c(OC)c2[nH]1` (centres unmarked) [32b, methyl 1-(chloromethyl)-5-methylamino-3-[(5,6,7-trimethoxyindol-2-yl)carbanyl]-1,2-dihydro-3H-pyrrolo[3,2-e]indole-7-carboxylate]: the IC50 in test [5] was found to be 0.7 nM; in test [6] it was 2.4 nM; in test [7], 1.9 nM; in test [8], 0.8 nM.

For `COC(=O)c1cc2c3c(cc(N(C)C)c2[nH]1)N(C(=O)c1cc2cc(OC)c(OC)c(OC)c2[nH]1)CC3CCl` (centres unmarked) [32c, methyl 1-(chloromethyl)-5-dimethylamino-3-[(5,6,7-trimethoxyindol-2-yl)carbonyl]-1,2-dihydro-3H-pyrrolo[3,2-e]indole-7-carboxylate], the IC50 was found to be 3.3 nM in test [5], 12 nM in test [6], 12 nM in test [7] and 5.2 nM in test [8].
